Like-named read-outs stand apart in the source and are kept apart here.
Legend:
[1] = biological target: JAK2 (Homo sapiens (Human), UniProt O60674); assay: Biochemical JAK kinase assay (LanthaScreen), JAK2
Procedure: (§1) Assay 1: Biochemical JAK Kinase Assays
(§2) A panel of four LanthaScreen JAK biochemical assays (JAK1, 2, 3 and Tyk2) were carried in a common kinase reaction buffer (50 mM HEPES, pH 7.5, 0.01% Brij-35, 10 mM MgCl2, and 1 mM EGTA). Recombinant GST-tagged JAK enzymes and a GFP-tagged STAT1 peptide substrate were obtained from Life Technologies.
(§3) Serially diluted compounds were pre-incubated with each of the four JAK enzymes and the substrate in white 384-well microplates (Corning) at ambient temperature for 1 h. ATP was subsequently added to initiate the kinase reactions in 10 μL total volume, with 1% DMSO. […] Kinase reactions were allowed to proceed for 1 hour at ambient temperature before a 10 μL preparation of EDTA (10 mM final concentration) and Tb-anti-pSTAT1 (pTyr701) antibody (Life Technologies, 2 nM final concentration) in TR-FRET dilution buffer (Life Technologies) was added. The plates were allowed to incubate at ambient temperature for 1 h before being read on the EnVision reader (Perkin Elmer). Emission ratio signals (520 nm/495 nm) were recorded and utilized to calculate the percent inhibition values based on DMSO and background controls.
(§4) For dose-response analysis, percent inhibition data were plotted vs. compound concentrations, and IC50 values were determined from a 4-parameter robust fit model with the Prism software (GraphPad Software). Results were expressed as pIC50 (negative logarithm of IC50) and subsequently converted to pKi (negative logarithm of dissociation constant, Ki) using the Cheng-Prusoff equation.

[2] = tested on: IL-2 stimulated STAT5 phosphorylation in Tall-1 human T cell line; assay: Inhibition of IL-2 stimulated pSTAT5 in Tall-1 T cells; type: cell-based
Procedure: Assay 2: Inhibition of IL-2 Stimulated pSTAT5 in Tall-1 T Cells
The potency of test compounds for inhibition of interleukin-2 (IL-2) stimulated STAT5 phosphorylation was measured in the Tall-1 human T cell line (DSMZ) using AlphaLisa.
Phosphorylated STAT5 was measured via the AlphaLISA SureFire Ultra pSTAT5 (Tyr694/699) kit (PerkinElmer).
Compounds were serially diluted in DMSO and dispensed acoustically to empty wells. Assay media (phenol red-free DMEM (Life Technologies) supplemented with 10% FBS (ATCC)) was dispensed (4 μL/well) and plates shaken at 900 rpm for 10 mins. Cells were seeded at 45,000 cells/well in assay media (4 μL/well), and incubated at 37° C., 5% CO2 for 1 hour, followed by the addition of IL-2 (R&D Systems; final concentration 300 ng/mL) in pre-warmed assay media (4 μL) for 30 minutes. […] The lysate was shaken at 900 rpm for 10 minutes at room temperature (RT). Phosphorylated STAT5 was measured via the pSTAT5 AlphaLisa kit (PerkinElmer). Freshly prepared acceptor bead mixture was dispensed onto lysate (5 μL) under green filtered <100 lux light. Plates were shaken at 900 rpm for 2 mins, briefly spun down, and incubated for 2 hrs at RT in the dark. Donor beads were dispensed (5 μL) under green filtered <100 lux light. Plates were shaken at 900 rpm for 2 minutes, briefly spun down, and incubated overnight at RT in the dark. Luminescence was measured with excitation at 689 nm and emission at 570 nm using an EnVision plate reader (PerkinElmer) under green filtered <100 lux light.
To determine the inhibitory potency of test compounds in response to IL-2, the average emission intensity of beads bound to pSTAT5 was measured in a human T cell line. IC50 values were determined from analysis of the inhibition curves of signal intensity versus compound concentration. Data are expressed as pIC50 (negative decadic logarithm IC50) values (mean±standard deviation).

[3] = tested on: TSLP-evoked TARC release in human peripheral blood mononuclear cells; assay: Inhibition of TSLP-evoked TARC release in human peripheral blood mononuclear cells; type: cell-based; conditions: read-out: pIC50 ± st. dev., inhibition of TSLP-evoked TARC release (converted)
From the text: Assay 4: Inhibition of TSLP-Evoked TARC Release in Human Peripheral Blood Mononuclear Cells
Thymic stromal lymphopoietin (TSLP) and thymus and activation-regulated chemokine (TARC) are overexpressed in asthmatic airways, and correlate with disease severity. In the lungs, TSLP may be released by bronchial epithelial cells in response to allergens and viral infections. TSLP signals through an IL-7Rα/TSLPR heterodimer found in a broad range of tissues and cell types, including epithelial cells, endothelial cells, neutrophils, macrophages, and mast cells. The binding of TSLP to its receptor induces a conformational change that activates JAK1 and JAK2 to phosphorylate various transcription factors, including STAT3 and STAT5. In immune cells, this triggers a cascade of intracellular events that result in cell proliferation, anti-apoptosis, dendritic cell migration, and production of Th2 cytokines and chemokines. In peripheral blood mononuclear cells (PBMC), TSLP has a proinflammatory effect by activating myeloid dendritic cells to attract and stimulate T cells, a process mediated by the chemoattractant TARC.
The potencies of the test compounds were measured for inhibition of TARC release.
PBMC aliquots (previously isolated from whole blood and frozen in aliquots at −80° C.) from 3 to 5 donors were thawed at 37° C. and added dropwise to 40 mL pre-warmed, sterile-filtered, complete RPMI media in 50 mL Falcon tubes. Cells were pelleted and resuspended in complete media at 2.24×10^6 cells/mL. […] Cells were allowed to rest for 1 hour at 37° C. with 5% CO2.
Compounds were received as 10 mM stock solutions in DMSO. 3.7-fold serial dilutions were performed to generate 9 concentrations of test compound in DMSO at 300× the final assay test concentration. […] 95 μL of 0.2% DMSO in complete media was added to the untreated control wells. Cells were pre-treated with compound for 1 hour at 37° C. with 5% CO2 prior to stimulation.
Immediately prior to use, an aliquot was thawed and prepared at 20× the final assay concentration in complete media. 10 μL of 20×TSLP was added to each well of PBMC, for a final assay concentration of 10 ng/mL. 10 μL of complete media was added to the unstimulated control wells. Cells were stimulated in the presence of compound for 48 hours at 37° C. with 5% CO2.
Following stimulation, the cell culture supernatants were harvested and TARC levels were detected by enzyme-linked immunosorbent assay (ELISA), using Human CCL17/TARC Quantikine ELISA Kit (R&D Systems # DDN00) according to the manufacturer's instructions.
For dose response analysis, the log [test compound (M)] was plotted versus the percent response values for each donor, and IC50 values were determined using a nonlinear regression analysis with GraphPad Prism Software using the 4-parameter sigmoidal dose-response algorithm with variable slope. Data are expressed as mean pIC50 (negative decadic logarithm IC50) values calculated from pIC50 values of individual donors and rounded to one decimal place.

[4] = biological target: Tyk2 (Homo sapiens (Human), UniProt P29597); assay: Biochemical JAK kinase assay (LanthaScreen), Tyk2; conditions: converted from pIC50 using Cheng-Prusoff; ATP 10 μM
Tyk2, sequence (P29597 whole entry): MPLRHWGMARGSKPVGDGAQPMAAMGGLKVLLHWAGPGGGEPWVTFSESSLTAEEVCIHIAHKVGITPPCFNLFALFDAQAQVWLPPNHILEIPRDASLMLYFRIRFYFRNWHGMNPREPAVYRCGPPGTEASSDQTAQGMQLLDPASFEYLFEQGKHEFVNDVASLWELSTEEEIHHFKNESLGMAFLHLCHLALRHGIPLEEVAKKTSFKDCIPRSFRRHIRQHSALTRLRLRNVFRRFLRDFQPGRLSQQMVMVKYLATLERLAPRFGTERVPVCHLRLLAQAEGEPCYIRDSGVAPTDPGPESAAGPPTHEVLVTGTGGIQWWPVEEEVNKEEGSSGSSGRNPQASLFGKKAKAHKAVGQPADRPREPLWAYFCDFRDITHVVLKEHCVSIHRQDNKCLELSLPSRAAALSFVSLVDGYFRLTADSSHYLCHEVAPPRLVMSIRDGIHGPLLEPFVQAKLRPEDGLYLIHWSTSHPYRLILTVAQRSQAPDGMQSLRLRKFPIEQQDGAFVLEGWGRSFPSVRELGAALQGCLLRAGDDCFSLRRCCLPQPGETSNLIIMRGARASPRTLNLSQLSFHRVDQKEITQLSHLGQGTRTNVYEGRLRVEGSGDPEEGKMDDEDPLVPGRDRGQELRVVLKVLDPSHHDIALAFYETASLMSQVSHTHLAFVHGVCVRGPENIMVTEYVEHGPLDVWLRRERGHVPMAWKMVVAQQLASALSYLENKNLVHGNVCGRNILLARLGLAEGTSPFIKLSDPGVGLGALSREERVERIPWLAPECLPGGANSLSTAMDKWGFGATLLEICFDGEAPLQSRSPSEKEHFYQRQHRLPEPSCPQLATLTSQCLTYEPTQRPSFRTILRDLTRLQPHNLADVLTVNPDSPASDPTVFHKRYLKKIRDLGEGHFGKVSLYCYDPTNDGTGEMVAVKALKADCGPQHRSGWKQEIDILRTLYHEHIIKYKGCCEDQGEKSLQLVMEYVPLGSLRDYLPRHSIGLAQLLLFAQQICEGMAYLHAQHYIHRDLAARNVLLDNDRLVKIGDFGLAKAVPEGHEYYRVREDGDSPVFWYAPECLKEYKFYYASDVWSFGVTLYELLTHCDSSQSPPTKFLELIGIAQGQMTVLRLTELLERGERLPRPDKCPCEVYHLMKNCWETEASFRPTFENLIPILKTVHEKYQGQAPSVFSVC
Procedure: as §1, §2, §3, §4

JAK2, sequence (O60674 whole entry): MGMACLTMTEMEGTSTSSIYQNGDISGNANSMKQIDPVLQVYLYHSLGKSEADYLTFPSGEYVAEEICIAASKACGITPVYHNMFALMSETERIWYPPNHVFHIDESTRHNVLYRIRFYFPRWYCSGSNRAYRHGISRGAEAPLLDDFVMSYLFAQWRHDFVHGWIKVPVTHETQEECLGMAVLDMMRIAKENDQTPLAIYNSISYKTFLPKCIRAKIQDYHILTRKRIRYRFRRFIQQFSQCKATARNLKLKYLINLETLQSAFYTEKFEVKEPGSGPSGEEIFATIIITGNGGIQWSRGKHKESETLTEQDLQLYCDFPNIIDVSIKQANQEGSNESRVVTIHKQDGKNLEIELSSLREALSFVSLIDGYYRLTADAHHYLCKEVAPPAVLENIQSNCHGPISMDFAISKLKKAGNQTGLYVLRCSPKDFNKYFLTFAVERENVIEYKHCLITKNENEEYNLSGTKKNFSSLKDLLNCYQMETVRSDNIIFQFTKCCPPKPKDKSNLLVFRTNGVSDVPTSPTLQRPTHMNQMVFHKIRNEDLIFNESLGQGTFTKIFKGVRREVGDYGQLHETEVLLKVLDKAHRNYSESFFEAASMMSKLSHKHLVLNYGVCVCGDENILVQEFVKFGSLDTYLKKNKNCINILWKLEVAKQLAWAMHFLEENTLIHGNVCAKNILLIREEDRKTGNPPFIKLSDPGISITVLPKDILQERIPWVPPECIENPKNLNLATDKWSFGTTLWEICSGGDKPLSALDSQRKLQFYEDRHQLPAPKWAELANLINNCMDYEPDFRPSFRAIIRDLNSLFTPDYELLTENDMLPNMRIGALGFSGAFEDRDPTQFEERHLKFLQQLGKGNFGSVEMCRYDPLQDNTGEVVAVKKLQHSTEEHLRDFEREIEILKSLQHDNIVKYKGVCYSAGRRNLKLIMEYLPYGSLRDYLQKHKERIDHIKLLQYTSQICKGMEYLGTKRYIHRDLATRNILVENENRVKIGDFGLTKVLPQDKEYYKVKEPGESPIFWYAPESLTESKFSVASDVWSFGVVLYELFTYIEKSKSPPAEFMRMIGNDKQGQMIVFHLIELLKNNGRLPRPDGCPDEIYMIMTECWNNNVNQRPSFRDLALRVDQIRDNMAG

Row | SMILES | Ki [1] | IC50 ([2]; TALL-1, read-out: Tall-1 pIC50 (converted)) | IC50 ([3]; Homo sapiens, PBMC, 48 h) | Tyk2 pKi [4] | JAK2 pKi ([1]; converted from pIC50 using Cheng-Prusoff, ATP 3 μM) | IC50 ([2]; IL-2 300 ng/mL, pSTAT5 AlphaLisa, Tall-1 cells, read-out: Tall-1 pIC50 (converted)) | IC50 ([3]; human PBMC, 3 to 5 donors, TSLP 10 ng/mL, 48 hours, ELISA)
1 | CCc1cc(O)ccc1-c1ccc2c(-c3nc4c([nH]3)CN(C)[C@H](C(=O)N3CCN(CCO)C[C@H]3C)C4)n[nH]c2c1 [Example 5, ((S)-2-(6-(2-ethyl-4-hydroxyphenyl)-1H-indazol-3-yl)-5-methyl-4,5,6,7-tetrahydro-3H-imidazo[4,5-c]pyridin-6-yl)((R)-4-(2-hydroxyethyl)-2-methylpiperazin-1-yl)methanone] | 0.0316 nM | 1.58 nM | 31.6 nM | – | – | – | –
2 | CCc1cc(O)ccc1-c1ccc2c(-c3nc4c([nH]3)CN(C(C)C)[C@H](C(=O)N3CC(N(C)C)C3)C4)n[nH]c2c1 [Example 7, (S)-(3-(dimethylamino)azetidin-1-yl)(2-(6-(2-ethyl-4-hydroxyphenyl)-1H-indazol-3-yl)-5-isopropyl-4,5,6,7-tetrahydro-3H-imidazo[4,5-c]pyridin-6-yl)methan One] | – | – | – | 9.1 | 10.5 | 2.51 nM | 63.1 nM
